Source: ChEMBL document CHEMBL5634183, “Total Synthesis of Bipenicilisorin and Assignment of the Absolute Configuration” (J Nat Prod, 2024)

How the values were obtained:
Colon 26 = assay: Antiproliferative activity against mouse Colon 26 cells assessed as reduction in cell viability incubated for 72 hrs by CCK8 assay; type: functional, cell-based; settings: Colon 26, 72 h
A549 [1] = assay: Antiproliferative activity against human A549 cells assessed as reduction in cell viability by CCK8 assay; type: functional, cell-based
A549 [2] = assay: Antiproliferative activity against human A549 cells assessed as reduction in cell viability incubated for 72 hrs by CCK8 assay; type: functional, cell-based
[3] = Cytotoxicity against mouse RAW264.7 cells assessed as reduction in cell viability incubated for 72 hrs by CCK8 assay; type: toxicity, cell-based
K562 = assay: Antiproliferative activity against human K562 cells assessed as reduction in cell viability by CCK8 assay; type: functional, cell-based
Huh-7 = assay: Antiproliferative activity against human Huh-7 cells assessed as reduction in cell viability by CCK8 assay; type: functional, cell-based

- IC50 (A549 [1]): 6.94 µM
- IC50 (A549 [2]; Homo sapiens, A549, 72 h): 36.9 µM
- IC50 (A549 [2]; a549): 60 µM
- IC50 (K562): 6.87 µM
- IC50 (Huh-7): 2.59 µM
SMILES: COC(=O)c1cc2cc(OC)c(-c3c(OC)cc4cc(C(=O)OC)oc(=O)c4c3O)c(O)c2c(=O)o1
- IC50 (Colon 26): > 50 µM
- IC50 at 72 h [3]: > 50 µM
